Where a name gives a salt, the structure may show the parent alone.
Target: T1, hCaV2.2 (Homo sapiens, UniProt Q00975)
T1 construct: expressed in transfected cells; plasmids pCIN5-hCaV2.2, pCIH-hCaV β3, pCIP-α2δ1
Assay: hCaV2.2 assay, IonWorks planar array electrophysiology in stably transfected HEK293 cells
Assay type: cell-based
Conditions: current elicited by the 1st depolarising pulse inhibited by 50%; HEK293 cells expressing human CaV2.2 alpha/beta3/alpha2delta1; read-out: mean pIC50 (tonic pIC50) (converted)
Experimental: Compounds of the invention may be tested for in vitro biological activity in the hCaV2.2 assay in accordance with the following studies:
Stable cell lines expressing the human CaV2.2 α (als) subunit, along with the human […] and α2δ1 auxiliary subunits were created following sequential transfection and selection of human embryonic kidney (HEK293) cells. HEK293 cells were cultured in Dulbecco's modified Eagles media/F12 media (Invitrogen, Cat #041-95750V) containing 10% foetal bovine serum, with added L-glutamine (2 mM; Invitrogen, Cat #25030-024) and non-essential amino acids (5%; Invitrogen, Cat #11140-035). Initially HEK293 cells were transfected with two plasmid vectors for expression of the hCaV2.2 α subunit (pCIN5-hCaV2.2 which carries a neomycin resistance marker) and the hCaV β3 subunit (pCIH-hCaV β3 which carries a hygromycin resistance marker). Clonal cell lines were isolated following selection in media supplemented with 0.4 mg ml^−1 Geneticin G418 (Invitrogen, Cat #10131-027) and 0.1 mg ml^1 hygromycin (Invitrogen, Cat #10687-010). These clonal cell lines were assessed for Cav2.2α/β3-mediated current expression using the IonWorks planar array electrophysiology technology (described below). A clonal line was identified that gave a reasonable level of functional Cav2.2α/β3 current expression. This cell line was transfected with a plasmid vector for expression of the human […] subunit (pCIP-α2δ1 which carries a puromycin resistance marker) and clonal cell lines isolated following selection in media containing 0.62 μg ml^−1 puromycin (Sigma, Cat #P-7255), in addition to 0.4 mg ml^−1 Geneticin G418 and 0.1 mg ml^−1 hygromycin. Several cell lines were identified that gave robust levels of Cav2.2α/β3/α2δ1-mediated current expression and one of these was selected for compound profiling. Expression of all three subunits within this cell line was continuously maintained by the inclusion of G418 (0.4 mg ml^−1), hygromycin (0.1 mg ml^−1) and puromycin (0.62 μg ml^−1). Cells were maintained at 37° C. in a humidified environment containing 5% CO2 in air. Cells were liberated from the T175 culture flasks for passage and harvesting using TrpLE (Invitrogen, Cat #12604-013).
Cells were grown to 30-60% confluence in T175 flasks and maintained at 30° C. for 24 hrs prior to recording. Cells were lifted by removing the growth media, washing with Ca^2+ free PBS (Invitrogen, Cat #14190-094) and incubating with 3 ml of warmed (37° C.) TrpLE (Invitrogen, Cat #12604-013) for 6 minutes. Lifted cells were suspended in 10 ml of extracellular buffer. Cell suspension was then placed into a 15 ml tube and centrifuged for 2 minutes at 700 rpm. After centrifugation, the supernatant was removed and the cell pellet was resuspended in 4.5 ml of extracellular solution.
Currents were recorded at room temperature (21-23° C.) using the IonWorks planar array electrophysiology technology (Molecular Devices Corp.). Stimulation protocols and data acquisition were carried out using a microcomputer (Dell Pentium 4). In order to determine planar electrode hole resistances (Rp), a 10 mV, 160 ms potential difference was applied across each hole. These measurements were performed before cell addition. After cell addition a seal test was performed prior to antibiotic (amphotericin) circulation to achieve intracellular access. Leak subtraction was conducted in all experiments by applying a 160 ms hyperpolarizing (10 mV) prepulse 200 ms before the test pulses to measure leak conductance. Test pulses stepping from the holding potential (VH) of −90 mV to +10 mV were applied for 20 ms and repeated 10 times at a frequency of 10 Hz. In all experiments, the test pulse protocol was performed in the absence (pre-read) and presence (post-read) of a compound. Pre- and post-reads were separated by a compound addition followed by a 3-3.5 min incubation.
The intracellular solution contained the following (in mM): K-gluconate 120, KCl 20 mM, MgCl2 5, EGTA 5, HEPES 10, adjusted to pH 7.3. […]

T1 sequence (Q00975 whole entry): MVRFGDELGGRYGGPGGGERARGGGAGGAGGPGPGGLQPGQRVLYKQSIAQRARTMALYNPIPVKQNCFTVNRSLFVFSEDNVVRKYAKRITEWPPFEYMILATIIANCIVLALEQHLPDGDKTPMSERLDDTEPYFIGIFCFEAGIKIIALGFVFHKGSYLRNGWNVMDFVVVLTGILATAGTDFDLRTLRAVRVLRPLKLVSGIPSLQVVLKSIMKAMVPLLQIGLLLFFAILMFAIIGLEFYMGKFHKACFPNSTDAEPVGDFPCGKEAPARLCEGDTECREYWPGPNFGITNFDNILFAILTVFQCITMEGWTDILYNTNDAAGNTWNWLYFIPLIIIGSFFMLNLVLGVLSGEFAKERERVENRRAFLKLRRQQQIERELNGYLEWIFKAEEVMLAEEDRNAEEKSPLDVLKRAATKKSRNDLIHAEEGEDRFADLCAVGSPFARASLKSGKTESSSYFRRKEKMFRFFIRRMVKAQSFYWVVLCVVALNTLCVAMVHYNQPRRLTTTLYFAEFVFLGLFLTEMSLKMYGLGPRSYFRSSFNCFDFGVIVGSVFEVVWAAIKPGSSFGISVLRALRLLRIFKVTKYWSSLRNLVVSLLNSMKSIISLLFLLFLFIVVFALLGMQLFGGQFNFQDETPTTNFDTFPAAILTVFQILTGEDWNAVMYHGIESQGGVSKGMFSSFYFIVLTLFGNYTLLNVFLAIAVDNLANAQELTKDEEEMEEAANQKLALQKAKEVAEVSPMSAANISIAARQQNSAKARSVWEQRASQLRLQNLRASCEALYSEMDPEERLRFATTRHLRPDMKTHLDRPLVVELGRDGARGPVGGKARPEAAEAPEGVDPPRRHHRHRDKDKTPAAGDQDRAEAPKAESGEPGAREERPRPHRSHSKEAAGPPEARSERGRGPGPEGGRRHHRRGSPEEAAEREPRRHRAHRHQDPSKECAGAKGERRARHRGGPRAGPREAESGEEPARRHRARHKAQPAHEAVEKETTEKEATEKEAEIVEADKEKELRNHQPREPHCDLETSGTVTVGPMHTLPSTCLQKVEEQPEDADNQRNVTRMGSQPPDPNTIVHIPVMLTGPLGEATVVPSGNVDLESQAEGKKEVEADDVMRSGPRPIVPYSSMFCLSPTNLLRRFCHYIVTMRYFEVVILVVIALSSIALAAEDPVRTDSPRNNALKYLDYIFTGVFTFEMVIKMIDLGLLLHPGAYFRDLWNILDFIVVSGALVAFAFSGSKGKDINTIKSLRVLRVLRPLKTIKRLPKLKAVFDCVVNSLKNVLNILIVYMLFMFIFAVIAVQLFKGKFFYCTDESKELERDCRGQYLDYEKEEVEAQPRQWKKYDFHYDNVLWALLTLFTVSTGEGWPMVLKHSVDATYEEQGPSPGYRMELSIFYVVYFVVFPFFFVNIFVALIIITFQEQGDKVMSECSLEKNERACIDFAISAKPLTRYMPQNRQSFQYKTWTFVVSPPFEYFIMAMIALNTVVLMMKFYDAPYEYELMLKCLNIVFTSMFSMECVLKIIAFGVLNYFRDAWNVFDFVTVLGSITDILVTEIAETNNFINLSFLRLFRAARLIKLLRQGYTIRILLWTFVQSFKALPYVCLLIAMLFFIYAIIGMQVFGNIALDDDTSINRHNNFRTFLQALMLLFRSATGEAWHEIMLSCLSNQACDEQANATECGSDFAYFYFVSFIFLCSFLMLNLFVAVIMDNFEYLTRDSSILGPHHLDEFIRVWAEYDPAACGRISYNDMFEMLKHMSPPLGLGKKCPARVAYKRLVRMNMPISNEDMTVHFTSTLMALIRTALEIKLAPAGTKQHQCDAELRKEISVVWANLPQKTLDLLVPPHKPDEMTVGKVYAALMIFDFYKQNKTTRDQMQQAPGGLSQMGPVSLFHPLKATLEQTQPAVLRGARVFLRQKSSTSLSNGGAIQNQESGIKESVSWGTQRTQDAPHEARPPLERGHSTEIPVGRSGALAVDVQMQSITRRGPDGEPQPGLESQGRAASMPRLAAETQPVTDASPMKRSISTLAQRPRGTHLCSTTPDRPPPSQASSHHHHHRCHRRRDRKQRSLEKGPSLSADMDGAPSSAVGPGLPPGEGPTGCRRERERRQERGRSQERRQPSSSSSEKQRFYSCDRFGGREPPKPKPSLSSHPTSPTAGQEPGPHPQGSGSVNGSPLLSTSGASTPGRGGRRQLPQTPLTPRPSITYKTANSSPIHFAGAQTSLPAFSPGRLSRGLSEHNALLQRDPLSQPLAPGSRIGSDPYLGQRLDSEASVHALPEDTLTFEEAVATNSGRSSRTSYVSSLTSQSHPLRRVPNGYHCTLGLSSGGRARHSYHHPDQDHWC

Row | Compound | IC50 [µM]
1 | COc1ncccc1C(=O)N1CCN(S(=O)(=O)c2ccc(C(F)(F)F)cc2)C[C@@H]1C [Example 15, (2S)-2-Methyl-1-{[2-(methyloxy)-3-pyridinyl]carbonyl}-4-{[4-(trifluoromethyl)phenyl]sulfonyl}piperazine] | ≥ 31.6
2 | Cc1ccc(C(=O)N2CCN(S(=O)(=O)c3ccc(C#N)cc3C)C[C@@H]2C)cn1 [Example 17, 3-Methyl-4-({(3S)-3-methyl-4-[(6-methyl-3-pyridinyl)carbonyl]-1-piperazinyl}sulfonyl)benzonitrile] | ≥ 31.6
3 | Cc1ncccc1C(=O)N1CCN(S(=O)(=O)c2ccc(C(F)(F)F)cc2)C[C@H]1C [Example 20, (2R)-2-methyl-1-[(2-methyl-3-pyridinyl)carbonyl]-4-{[4-(trifluoromethyl)phenyl]sulfonyl}piperazine formic acid salt (1:1)] | ≥ 31.6
4 | Cc1ccc(C(=O)N2CCN(S(=O)(=O)c3ccc(C(F)(F)F)cc3)CC2)cn1 [Example 4, 1-[(6-Methyl-3-pyridinyl)carbonyl]-4-{[4-(trifluoromethyl)phenyl]sulfonyl}piperazine] | ≥ 31.6
5 | Cc1cc(C#N)ccc1S(=O)(=O)N1CCN(C(=O)c2ccc(Cl)nc2C)[C@@H](C)C1 [Example 25, 4-({(3S)-4-[(6-Chloro-2-methyl-3-pyridinyl)carbonyl]-3-methyl-1-piperazinyl}sulfonyl)-3-methylbenzonitrile] | ≥ 10
6 | O=C(c1ccc(N2CCOCC2)nc1)N1CCN(S(=O)(=O)c2ccc(C(F)(F)F)cc2)CC1 [Example 6, 4-{5-[(4-{[4-(Trifluoromethyl)phenyl]sulfonyl}-1-piperazinyl)carbonyl]-2-pyridinyl}morpholine] | ≥ 31.6

Further lines, results first:

Row | IC50 [µM] | Compound
7 | ≥ 31.6 | Cc1cc(C#N)ccc1S(=O)(=O)N1CCN(C(=O)c2ccc(N(C)C)nc2)[C@@H](C)C1 [Example 71, 4-[((3S)-4-{[6-(dimethylamino)-3-pyridinyl]carbonyl}-3-methyl-1-piperazinyl)sulfonyl]-3-methylbenzonitrile]
8 | ≥ 10 | Cc1ccc(C(=O)N2CCN(S(=O)(=O)c3ccc(C(F)(F)F)cc3)C[C@@H]2C)c(C)n1 [Example 29, (2S)-1-[(2,6-Dimethyl-3-pyridinyl)carbonyl]-2-methyl-4-{[4-(trifluoromethyl)phenyl]sulfonyl}piperazine]
9 | ≥ 10 | Cc1ccc(C(F)(F)F)cc1S(=O)(=O)N1CCN(C(=O)c2cccnc2C)[C@@H](C)C1 [Example 60, (2S)-2-methyl-1-[(2-methyl-3-pyridinyl)carbonyl]-4-{[2-methyl-5-(trifluoromethyl)phenyl]sulfon-yl}piperazine]
